In patent US10738056B2 (Aduro BioTech, Inc., priority 2017, dated 2020):
pIC50: −log10 of the molar value.

Legend:
[1] = test system: cGAS/STING pathway in THP1 cells; assay: THP1 cell-based cGAS/STING pathway activity assay (IRF-3-linked luciferase reporter); conditions: Homo sapiens, THP-1
Outline: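 THP1 cells carrying an IRF-3-driven luciferase reporter were read across a range of compound concentrations, and IC50 values were derived from these concentration responses; the assay upper limit was 100 μM.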

[2] = test system: MCP-1/CCL2 secretion by Trex1-KO BMM; assay: Inhibition of MCP-1/CCL2 secretion by Trex1-KO bone marrow-derived macrophages; assay type: cell-based, mice; design: key to BMM IC50 M (MCP-1): A: an IC50 value less than 5 μM; B: an IC50 value between 5 and 20 μM; where an IC50 value could not be calculated from the data; conditions: MCP-1 secretion; for pIC50: Mus musculus, Macrophage, read-out: BMM IC50 M (MCP-1)
Description: (§1) A cellular assay can be used to asses the compounds of the invention for their ability to inhibit cytokine production. Bone marrow macrophages harvested from mice can be used to determine response as a function of compound concentration.
(§2) The inhibition of secreted cytokine was measured in bone marrow-derived macrophages (BMMs) from diseased mice to evaluate the potency of compounds of the invention as described herein. […] To derive bone marrow macrophages, marrow extracted from the femurs and tibias were harvested from Trex1-KO mice was cultured in growth media supplemented with macrophage colony-stimulating factor (M-CSF). Differentiated BMM were harvested and frozen for subsequent experimentation. For treatment with compound C1089 (see Example 13), a frozen stock of Trex1-KO BMM was thawed and 1×10^5 cells were plated in 96 well format. BMMs were treated with a dilution series of C1089 and incubated overnight at 37° C. 5% CO2, at which point cellular supernatants were harvested and stored at −80° C. for subsequent analysis. The media used for this dilution series was without FBS. Remaining cells were evaluated for viability using Cell Titer Glo 2.0 kit according to the manufacturer instructions. BMM supernatants were evaluated for the secreted cytokine […] (RANTES/CCL5) or for secreted cytokine monocyte chemoattractant protein 1 (MCP-1/CCL2) using cytometric bead array mouse Flex Set kits (BD Biosciences). Cytokine concentration was calculated from a standard curve and normalized to vehicle (DMSO) treated cells.

[3] = test system: RANTES/CCL5 secretion by Trex1-KO BMM; assay: Inhibition of RANTES/CCL5 secretion by Trex1-KO bone marrow-derived macrophages; assay type: cell-based, mice; design: key to BMM IC50 R (RANTES): A: an IC50 value less than 5 μM; B: an IC50 value between 5 and 20 μM; where an IC50 value could not be calculated from the data; conditions: RANTES secretion; for pIC50: Mus musculus, Macrophage, read-out: BMM IC50 R (RANTES)
Description: as §1, §2

[4] = target: Human cGAS amino acids 155-522 (Homo sapiens (Human), UniProt Q8N884); assay: cGAS biochemical activity assay (ATP remaining, Kinase-Glo Max luminescence); conditions: human cGAS 155-522, ATP remaining (Kinase-Glo Max); read-out: cGAS IC50
Chain of Human cGAS amino acids 155-522 (Q8N884 157-522): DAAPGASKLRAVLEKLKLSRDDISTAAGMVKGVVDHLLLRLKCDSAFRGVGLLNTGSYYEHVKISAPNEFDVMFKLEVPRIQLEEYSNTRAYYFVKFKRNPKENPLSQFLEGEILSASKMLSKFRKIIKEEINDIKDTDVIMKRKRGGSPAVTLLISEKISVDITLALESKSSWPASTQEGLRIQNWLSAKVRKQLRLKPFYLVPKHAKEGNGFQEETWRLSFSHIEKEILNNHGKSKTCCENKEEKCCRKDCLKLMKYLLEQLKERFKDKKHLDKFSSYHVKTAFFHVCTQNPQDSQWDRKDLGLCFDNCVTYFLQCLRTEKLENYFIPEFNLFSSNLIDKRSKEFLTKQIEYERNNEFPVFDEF

Row | pIC50 [1] | pIC50 [2] | pIC50 [3] | pIC50 [4] | BMM IC50 M (MCP-1) [2] | BMM IC50 R (RANTES) [3] | Compound
1 | > 4.70 | 4.70 to 5.30 | > 5.30 | > 4.70 |  |  | Cc1[nH]c2c(-c3ccccc3)c(C(F)(F)F)nn2c(=O)c1-c1nnc(C#N)o1 [Compound D1071, 5-(5-methyl-7-oxo-3-phenyl-2-(trifluoromethyl)-4,7-dihydropyrazolo[1,5-a]pyrimidin-6-yl)-1,3,4-oxadiazole-2-carbonitrile]
2 | > 4.70 |  |  | > 4.70 | C | C | CCOC(=O)C1CC=C(c2[nH]c3c(-c4ccccc4)c(C(F)(F)F)nn3c(=O)c2-c2nc3c(OC)cccc3o2)CC1 (stereo not drawn) [Compound C1233, ethyl 4-(6-(4-methoxybenzo[d]oxazol-2-yl)-7-oxo-3-phenyl-2-(trifluoromethyl)-4,7-dihydropyrazolo[1,5-a]pyrimidin-5-yl)cyclohex-3-ene-1-carboxylate]
3 | 4.00 to 4.70 |  |  | > 4.70 | C | C | COc1cc(N)cc2oc(-c3c(C)[nH]c4c(-c5ccccc5)c(C#N)nn4c3=O)nc12 [Compound C1175, 6-(6-amino-4-methoxybenzo[d]oxazol-2-yl)-5-methyl-7-oxo-3-phenyl-4,7-dihydropyrazolo[1,5-a]pyrimidine-2-carbonitrile]
4 | < 4.00 |  |  | > 4.70 | C | C | CO[C@@](c1ccccc1)(c1nnc(-c2c(C)[nH]c3c(-c4ccccc4)c(C(F)(F)F)nn3c2=O)o1)C(F)(F)F [Compound D1028, (S)-5-methyl-3-phenyl-6-(5-(2,2,2-trifluoro-1-methoxy-1-phenylethyl)-1,3,4-oxadiazol-2-yl)-2-(trifluoromethyl)pyrazolo[1,5-a]pyrimidin-7(4H)-one]

Second part, the compound before the results:

Row | Compound | pIC50 [1] | pIC50 [2] | pIC50 [3] | pIC50 [4] | BMM IC50 M (MCP-1) [2] | BMM IC50 R (RANTES) [3]
5 | CSc1cccc2oc(-c3c(C)[nH]c4c(-c5ccccc5)c(C(F)(F)F)nn4c3=O)nc12 [Compound C1047, 5-methyl-6-(4-(methylthio)benzo[d]oxazol-2-yl)-3-phenyl-2-(trifluoromethyl)pyrazolo[1,5-a]pyrimidin-7(4H)-one] | > 4.70 | 4.70 to 5.30 | > 5.30 | > 4.70 |  | 
6 | COc1cc(N)cc2oc(-c3c(C)[nH]c4c(-c5ccccc5)c(C(F)(F)F)nn4c3=O)nc12 [Compound C1123, 6-(6-amino-4-methoxybenzo[d]oxazol-2-yl)-5-methyl-3-phenyl-2-(trifluoromethyl)pyrazolo[1,5-a]pyrimidin-7(4H)-one] | 4.00 to 4.70 |  |  | > 4.70 | C | C
7 | Cc1[nH]c2c(-c3ccccc3)c(C(F)(F)F)nn2c(=O)c1C(=O)Nc1cccc(OC2CCCC2)c1 [Compound A1082, N-(3-(cyclopentyloxy)phenyl)-5-methyl-7-oxo-3-phenyl-2-(trifluoromethyl)-4,7-dihydropyrazolo[1,5-a]pyrimidine-6-carboxamide] | > 4.70 |  |  | > 4.70 | C | C
8 | COc1cccc2oc(-c3c(C(F)(F)F)[nH]c4c(-c5ccccc5)c(C(F)(F)F)nn4c3=O)nc12 [Compound C1077, 6-(4-methoxybenzo[d]oxazol-2-yl)-3-phenyl-2,5-bis(trifluoromethyl)pyrazolo[1,5-a]pyrimidin-7(4H)-one] | > 4.70 |  |  | > 4.70 | C | C
9 | Cc1[nH]c2c(-c3ccccc3)c(C(F)(F)F)nn2c(=O)c1C(=O)Nc1cc(Br)cc(CN(C)C)c1 [Compound A1139, N-(3-bromo-5-((dimethylamino)methyl)phenyl)-5-methyl-7-oxo-3-phenyl-2-(trifluoromethyl)-4,7-dihydropyrazolo[1,5-a]pyrimidine-6-carboxamide] | > 4.70 |  |  | > 4.70 | C | C
